Experiments:
Type in all cases: binding
[1] = target: TEAD3 (Homo sapiens, UniProt Q99594); assay: Lipid HTRF (TR-FRET lipid pocket probe competition), 30 min pre-incubation, TEAD3; conditions: His-tagged TEAD3, 30 minutes pre-incubation with compound at room temperature; read-out: Lipid HTRF TEAD3 IC50
Protocol: (§1) His-tagged TEAD proteins are pre-incubated with TEAD project compounds for 30 minutes at room temperature. Biotinylated lipid pocket probes are then added to the TEAD/Compound mixture and incubated for 60 minutes at room temperature. The lipid pocket probe competes with the test compound for the TEAD lipid pocket until equilibrium is reached. After 60 minutes, Europium labelled anti-His (Perkin Elmer #AD0110) and XL665 labelled streptavidin (CIS Bio 610SAXAC) are added to the TEAD/test compound/lipid pocket mixture and incubated for 30 minutes. […] If a TEAD lipid pocket binder such as binds and displaces the lipid pocket probe, the disruption of the TEAD:probe interaction results in a decrease in TR-FRET signal. The potency of compounds as TEAD lipid pocket binders is determined by IC50 value generated using a non-linear 4 parameter curve fit.

[2] = target: T1, TEAD2 (Homo sapiens, UniProt Q15562); assay: Lipid HTRF (TR-FRET lipid pocket probe competition), 30 min pre-incubation, TEAD2; conditions: His-tagged TEAD2, 30 minutes pre-incubation with compound at room temperature; read-out: Lipid HTRF TEAD2 IC50
T1 sequence (Q15562 whole entry, species assumed): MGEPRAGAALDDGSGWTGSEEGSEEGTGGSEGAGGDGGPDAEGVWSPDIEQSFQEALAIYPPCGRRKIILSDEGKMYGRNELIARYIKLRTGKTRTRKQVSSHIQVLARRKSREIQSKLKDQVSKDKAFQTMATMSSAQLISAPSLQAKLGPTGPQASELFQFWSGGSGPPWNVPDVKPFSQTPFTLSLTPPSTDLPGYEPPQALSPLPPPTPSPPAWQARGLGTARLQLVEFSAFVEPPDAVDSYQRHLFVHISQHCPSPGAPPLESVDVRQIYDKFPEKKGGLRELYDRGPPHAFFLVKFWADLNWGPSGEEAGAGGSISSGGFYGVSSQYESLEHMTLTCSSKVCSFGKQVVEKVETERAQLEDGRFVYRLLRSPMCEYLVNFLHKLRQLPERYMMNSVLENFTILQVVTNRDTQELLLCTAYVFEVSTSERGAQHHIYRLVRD
Protocol: as §1

[3] = target: TEAD4 (Homo sapiens, UniProt Q15561); assay: Lipid HTRF (TR-FRET lipid pocket probe competition), 30 min pre-incubation, TEAD4; conditions: His-tagged TEAD4, 30 minutes pre-incubation with compound at room temperature; read-out: Lipid HTRF TEAD4 IC50
Chain of TEAD4 (Q15561 whole entry, species assumed): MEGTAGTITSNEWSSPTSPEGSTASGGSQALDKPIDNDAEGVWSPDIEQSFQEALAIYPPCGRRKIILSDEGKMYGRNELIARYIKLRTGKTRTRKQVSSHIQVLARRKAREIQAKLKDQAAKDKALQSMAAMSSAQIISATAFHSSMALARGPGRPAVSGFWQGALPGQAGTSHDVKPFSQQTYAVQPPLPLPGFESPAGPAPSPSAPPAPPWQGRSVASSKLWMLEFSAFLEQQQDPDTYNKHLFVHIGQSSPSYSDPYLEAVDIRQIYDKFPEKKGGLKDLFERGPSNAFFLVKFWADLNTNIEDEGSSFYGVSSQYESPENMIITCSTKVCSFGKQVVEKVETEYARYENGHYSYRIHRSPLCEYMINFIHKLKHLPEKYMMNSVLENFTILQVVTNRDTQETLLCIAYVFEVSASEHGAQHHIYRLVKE
Protocol: as §1

[4] = target: TEAD1 (Homo sapiens, UniProt P28347); assay: Lipid HTRF (TR-FRET lipid pocket probe competition), 30 min pre-incubation, TEAD1; conditions: His-tagged TEAD1, 30 minutes pre-incubation with compound at room temperature; read-out: Lipid HTRF TEAD1 IC50
Chain of TEAD1 (P28347 whole entry, species assumed): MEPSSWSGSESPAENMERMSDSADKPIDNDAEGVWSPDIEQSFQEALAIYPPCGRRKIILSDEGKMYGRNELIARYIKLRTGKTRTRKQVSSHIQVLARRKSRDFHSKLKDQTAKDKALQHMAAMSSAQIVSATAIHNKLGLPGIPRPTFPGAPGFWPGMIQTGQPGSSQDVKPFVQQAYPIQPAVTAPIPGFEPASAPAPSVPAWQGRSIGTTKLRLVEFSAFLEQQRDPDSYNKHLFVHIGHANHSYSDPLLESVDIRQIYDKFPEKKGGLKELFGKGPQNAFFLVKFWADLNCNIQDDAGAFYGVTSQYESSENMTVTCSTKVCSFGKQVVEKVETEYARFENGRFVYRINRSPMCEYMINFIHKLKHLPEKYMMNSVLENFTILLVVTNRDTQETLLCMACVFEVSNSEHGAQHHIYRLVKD
Protocol: as §1

[5] = target: T1, TEAD2; assay: TEAD2 Lipid + 4 hr HTRF WUXI (TR-FRET lipid pocket probe competition, 4 h pre-incubation); conditions: 4 hours pre-incubation with compound at room temperature; Table 3
Protocol: His-tagged TEAD2 or 4 proteins are pre-incubated with TEAD project compounds for 4 hours at room temperature. Biotinylated lipid pocket probes are then added to the TEAD/Compound mixture and incubated for 60 minutes at room temperature. The lipid pocket probe competes with the test compound for the TEAD lipid pocket until equilibrium is reached. After 60 minutes, Europium labelled anti-His (Perkin Elmer #AD0110) and XL665 labelled streptavidin (CIS Bio 610SAXAC) are added to the TEAD/test compound/lipid pocket mixture and incubated for 30 minutes. TR-FRET values are then measured using an EnVision multi-label plate reader (Perkin Elmer Cat#2104-0010A.) If the lipid pocket probe binds to TEAD as expected, a TR-FRET signal results from the proximity of anti-His Eu and XL665. If a TEAD lipid pocket binder such as binds and displaces the lipid pocket probe, the disruption of the TEAD:probe interaction results in a decrease in TR-FRET signal. The potency of compounds as TEAD lipid pocket binders is determined by IC50 value generated using a non-linear 4 parameter curve fit.

Chain of TEAD3 (Q99594 whole entry, species assumed): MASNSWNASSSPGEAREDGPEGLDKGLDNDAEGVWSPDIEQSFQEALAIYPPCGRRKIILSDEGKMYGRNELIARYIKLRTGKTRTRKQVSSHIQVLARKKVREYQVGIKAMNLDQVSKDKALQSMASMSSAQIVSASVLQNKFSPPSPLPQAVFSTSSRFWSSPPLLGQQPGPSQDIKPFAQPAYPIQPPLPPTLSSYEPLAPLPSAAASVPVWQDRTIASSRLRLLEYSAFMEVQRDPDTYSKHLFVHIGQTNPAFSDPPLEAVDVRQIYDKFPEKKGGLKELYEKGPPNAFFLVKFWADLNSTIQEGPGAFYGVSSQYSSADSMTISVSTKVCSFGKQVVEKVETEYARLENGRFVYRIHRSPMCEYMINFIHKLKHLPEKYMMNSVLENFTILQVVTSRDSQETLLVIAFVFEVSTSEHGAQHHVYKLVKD

IC50 [1] [nM] | IC50 [2] [nM] | IC50 [3] [nM] | IC50 [4] [nM] | IC50 [5] [nM] | Compound
36000 | 2800 | 640 | 2900 |  | CC(C)c1ccc(-c2cc(NC(=O)[C@H]3CO3)c(C#N)c3c2OCC3)cc1 [Final product from Example 45, (R)-N-(4-cyano-7-(4-isopropylphenyl)-2,3-dihydrobenzofuran-5-yl)oxirane-2-carboxamide]
1400 | 180 | 70 | 170 |  | CC(C)c1ccc(-c2cc(NC(=O)N(C)C#N)c(C#N)c3c2OCC3)cc1 [Final product from Example 46, 1-cyano-3-(4-cyano-7-(4-isopropylphenyl)-2,3-dihydrobenzofuran-5-yl)-1-methylurea]
30000 | 2700 | 840 | 2900 |  | CC(C)c1ccc(-c2cc(N(C)C(=O)NC#N)c(C#N)c3c2OCC3)cc1 [Final product from Example 47, 3-cyano-1-[4-cyano-7-(4-isopropylphenyl)-2,3-dihydrobenzofuran-5-yl]-1-methyl-urea]
180 | 60 | 90 | 50 |  | CC(F)(F)c1ccc(-c2cc(NC(=O)[C@@H]3CO3)c(C#N)c3c2OCC3)cc1 [Final product from Example 48, (S)-N-(4-cyano-7-(4-(1,1-difluoroethyl)phenyl)-2,3-dihydrobenzofuran-5-yl)oxirane-2-carboxamide]
9100 | 4100 | 1100 | 2900 |  | CC(F)(F)c1ccc(-c2cc(NC(=O)[C@H]3CO3)c(C#N)c3c2OCC3)cc1 [Final product from Example 49, (R)-N-(4-cyano-7-(4-(1,1-difluoroethyl)phenyl)-2,3-dihydrobenzofuran-5-yl)oxirane-2-carboxamide]
110 | 40 | 50 | 30 |  | N#Cc1c(NC(=O)[C@@H]2CO2)cc(-c2ccc(OC(F)(F)F)cc2)c2c1CCO2 [Final product from Example 50, (S)-N-(4-cyano-7-(4-(trifluoromethoxy)phenyl)-2,3-dihydrobenzofuran-5-yl)oxirane-2-carboxamide]
> 50000 | 4200 | 2200 | 11000 |  | N#Cc1c(NC(=O)[C@H]2CO2)cc(-c2ccc(OC(F)(F)F)cc2)c2c1CCO2 [Final product from Example 51, (R)-N-(4-Cyano-7-(4-(trifluoromethoxy)phenyl)-2,3-dihydrobenzofuran-5-yl)oxirane-2-carboxamide]
 |  |  |  | 3.4 | C=CC(=O)Nc1cc(-c2ccc(OC(F)(F)F)cc2)c2c(c1CO)CCO2 [Final product from Example 53, N-(4-(Hydroxymethyl)-7-(4-(trifluoromethoxy)phenyl)-2,3-dihydrobenzofuran-5-yl)acrylamide]
 |  |  |  | 8.6 | C=CC(=O)Nc1cc(-c2ccc(S(F)(F)(F)(F)F)cc2)c2c(c1CO)CCO2 [Final product from Example 54, N-[4-(Hydroxymethyl)-7-[4-(pentafluoro-6-sulfanyl)phenyl]-2,3-dihydrobenzofuran-5-yl]prop-2-enamide]
 |  |  |  | 18.9 | C=CC(=O)Nc1cc(-c2ccc(OC(F)(F)F)cc2)c2ncsc2c1C#N [Final product from Example 55, N-(7-Cyano-4-(4-(trifluoromethoxy)phenyl)benzo[d]thiazol-6-yl)acrylamide]
